From US4347319A, “Microbiological epoxidation process” (priority 1980, dated 1982)

Columns and labels:
[1] = system: cell extract of Kloeckera sp. strain A2 NRRL-Y-11,420; test: Oxidation of secondary alcohols to methylketone by cell extracts of yeasts; type: biochemical; settings: methanol-grown; cell extract + NAD^+; sec. alcohol to methyl ketone; gas chromatography
[2] = system: Candida utilis ATCC 26387; test: Oxidation of sec-alcohols to ketones by cell suspensions of yeasts; type: cell-based; settings: sec-alcohol to methyl ketone
[3] = system: cell extract of Pichia sp. NRRL-Y-11,328; test: Oxidation of secondary alcohols to methylketone by cell extracts of yeasts; type: biochemical; settings: methanol-grown; cell extract + NAD^+; sec. alcohol to methyl ketone; gas chromatography
[4] = system: purified secondary alcohol dehydrogenase (SADH) from Pseudomonas sp. ATCC 21439; test: Kinetics and substrate specificity of purified SADH; type: biochemical; settings: 2-butanol = 100%
[5] = system: Torulopsis sp. Strain A1 (NRRLY-11,419); test: Oxidation of sec-alcohols to ketones by cell suspensions of yeasts; type: cell-based; settings: sec-alcohol to methyl ketone
[6] = system: Methylococcus capsulatus CRL 25 NRRL B-11,221; test: Sec. alcohol oxidation by cell suspensions of methanol-grown cells; type: cell-based; settings: sec. alcohol to methyl ketone
Excerpt: (§1) In this example, the procedure of Example 1 was repeated except that a plurality of the methane-utilizing methylotrophic microorganisms of the invention were each aerobically grown in a methanol-containing nutrient medium instead of a methane-containing medium. The nutrients in the medium were the same as indicated in Example 1 except that 0.4% v/v methanol was used as the alcohol dehydrogenase enzyme inducer and major source of carbon and energy for growth. Following growth the cells were harvested and washed as described in Example 1. The resting cells of the induced methanol-grown methylotrophic microorganisms were then contacted with a […] under aerobic conditions in a buffered solution by the procedure described in Example 1.

[7] = system: Methylobacterium organophilum CRL 26 NRRL B-11,222; test: as above; type: cell-based; settings: sec. alcohol to methyl ketone
Excerpt: as §1

[8] = system: Methylomonas methanica CRL M4P NRRL B-11,205; test: as above; type: cell-based; settings: sec. alcohol to methyl ketone
Excerpt: as §1

[9] = system: Methylomonas streptobacterium CRL 17 PM3 NRRL B-11,208; test: as above; type: cell-based; settings: sec. alcohol to methyl ketone
Excerpt: as §1

[10] = system: Methylobacter vinelandii CRL M5Y NRRL B-11,218; test: as above; type: cell-based; settings: sec. alcohol to methyl ketone
Excerpt: as §1

[11] = system: Methylocystis parvus CRL 18 NRRL B-11,204; test: as above; type: cell-based; settings: sec. alcohol to methyl ketone
Excerpt: as §1

[12] = system: Methylobacter chroococcum CRL M6 NRRL B-11,214; test: as above; type: cell-based; settings: sec. alcohol to methyl ketone
Excerpt: as §1

[13] = system: Methylobacter bovis CRL 19 NRRL B-11,217; test: as above; type: cell-based; settings: sec. alcohol to methyl ketone
Excerpt: as §1

[14] = system: Methylosinus trichosporium CRL 15 NRRL B-11,202; test: as above; type: cell-based; settings: sec. alcohol to methyl ketone
Excerpt: as §1

[15] = system: Methylococcus capsulatus CRL M1 NRRL B-11,219; test: as above; type: cell-based; settings: sec. alcohol to methyl ketone
Excerpt: as §1

[16] = system: cell extract of Torulopsis sp. strain A1 NRRL-Y-11,419; test: Oxidation of secondary alcohols to methylketone by cell extracts of yeasts; type: biochemical; settings: methanol-grown; cell extract + NAD^+; sec. alcohol to methyl ketone; gas chromatography
[17] = system: Methylobacter bovis (CRL M1Y) NRRL B-11,216; test: Oxidation by washed cell suspensions of methane-grown cells; type: cell-based; settings: methane-grown cells; isopropanol to acetone, 2-butanol to 2-butanone
Protocol: The pH of the nutrient medium was adjusted to 7.0 by the addition of acid or base and 50 ml samples of the nutrient medium were charged into a plurality of 300 ml shaker flasks. The shaker flasks were inoculated with an inoculating loop of cells from an agar plate containing homogeneous colonies of the microorganisms on the plate (the purity of the isolates was confirmed by microscopic examination. The isolates had been maintained on agar plates under an atmosphere of methane and air having a 1:1 v/v gas ratio which had been transferred evey two weeks. The gaseous phase of the inoculated flasks was then replaced with a gas mixture comprised of methane and air having a ratio of 1:1 on a v/v basis. […]
The cells were harvested by centrifugation at 10,000×g. at 4° C. for 30 minutes. The cell pellet was washed twice with a 0.15 M phosphate buffer at a pH of 7.0 (containing 0.002 M MgCl2). The washed cells were then suspended in a 0.15 M phosphate buffer at pH 7.0.
A 0.5 ml sample of each washed cell suspension (2 mg cells) was put into 10 ml vials at 4° C. which were sealed with a rubber cap. The gaseous phase of the vials was removed with vacuum and then was replaced with a gas mixture of the oxidative substrate (e.g., methane) and oxygen at a 1:1 v/v ratio. The vials were then incubated at 30 ° C. on a rotary shaker at 300 rpm. Samples of product (3 μl) were withdrawn periodically with a microsyringe and the products were analyzed by gas chromatography (ionization flame detector column).
The newly discovered and isolated microorganism strains of the present invention were each grown aerobically in the presence of methane in the manner described above. The methane-grown microbial cells were then washed, recovered and put to use in oxidizing an oxidative substrate by the procedure described above except in the case of a liquid substrate 10 μl of the substrate were used.

[18] = system: Kloeckera sp. Strain A2 (NRRLY-11,420); test: Oxidation of sec-alcohols to ketones by cell suspensions of yeasts; type: cell-based; settings: sec-alcohol to methyl ketone
[19] = system: cell extract of Hansenula polymorpha ATCC 26,012; test: Oxidation of secondary alcohols to methylketone by cell extracts of yeasts; type: biochemical; settings: methanol-grown; cell extract + NAD^+; sec. alcohol to methyl ketone; gas chromatography
[20] = system: purified secondary alcohol dehydrogenase from Pichia sp. NRRL Y-11,328; test: Substrate specificity, electron acceptor and stoichiometry of purified yeast SADH; type: biochemical; settings: examined spectrophotometrically
[21] = system: cell extract of Candida utilis ATCC 26,387; test: Oxidation of secondary alcohols to methylketone by cell extracts of yeasts; type: biochemical; settings: methanol-grown; cell extract + NAD^+; sec. alcohol to methyl ketone; gas chromatography
[22] = system: Hansenula polymorpha ATCC 26012; test: Oxidation of sec-alcohols to ketones by cell suspensions of yeasts; type: cell-based; settings: sec-alcohol to methyl ketone
[23] = system: Methylosinus trichosporium (CRL 15 PM1) NRRL B-11,202; test: Oxidation by washed cell suspensions of methane-grown cells; type: cell-based; settings: methane-grown cells; isopropanol to acetone, 2-butanol to 2-butanone
Procedure, shortened: (§2)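 Cells grown 2 days at 30 °C under methane/air 1:1 (pH 7.0 medium), washed and resuspended in 0.15 M phosphate pH 7.0. Suspension (2 mg cells) incubated at 30 °C, 300 rpm under substrate/O2 1:1 (liquid substrates 10 μl); products measured periodically by GC with flame ionization detection.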

[24] = system: Methylobacter chroococcum (CRL M6) NRRL B-11,214; test: as above; type: cell-based; settings: methane-grown cells; isopropanol to acetone, 2-butanol to 2-butanone
Procedure, shortened: as §2

[25] = system: Methylomonas rubrum (CRL M6P) NRRL B-11,210; test: as above; type: cell-based; settings: methane-grown cells; isopropanol to acetone
Procedure, shortened: as §2

[26] = system: Methylococcus capsulatus (CRL M1) NRRL B-11,219; test: as above; type: cell-based; settings: methane-grown cells; isopropanol to acetone, 2-butanol to 2-butanone
Procedure, shortened: as §2

[27] = system: Methylobacterium organophilum (CRL 26 R6) NRRL B-11,222; test: as above; type: cell-based; settings: methane-grown cells; isopropanol to acetone, 2-butanol to 2-butanone
Procedure, shortened: as §2

Pichia sp. NRRL-Y-11328 = test: Oxidation of sec-alcohols to ketones by cell suspensions of yeasts; type: cell-based; settings: sec-alcohol to methyl ketone

## CC(C)O [Isopropanol]
[1]
  Conversion Rate: 4.8 μmoles/hr/mg Protein
[2]; growth substrate Ethanol
  Conversion Rate: 5.2 μmoles/hr/mg of protein
[2]; growth substrate Methanol
  Conversion Rate: 6.2 μmoles/hr/mg of protein
[2]; growth substrate Methylamine
  Conversion Rate: 5.0 μmoles/hr/mg of protein
[2]; growth substrate Methylformate
  Conversion Rate: 5.6 μmoles/hr/mg of protein
[2]; growth substrate Propylamine
  Conversion Rate: 4.2 μmoles/hr/mg of protein
[3]
  Conversion Rate: 5.5 μmoles/hr/mg Protein
[4]
  relative percent rate of oxidation: 85%
[5]; growth substrate Ethanol
  Conversion Rate: 4.2 μmoles/hr/mg of protein
[5]; growth substrate Methanol
  Conversion Rate: 4.5 μmoles/hr/mg of protein
[5]; growth substrate Methylamine
  Conversion Rate: 4.3 μmoles/hr/mg of protein
[5]; growth substrate Methylformate
  Conversion Rate: 4.5 μmoles/hr/mg of protein
[5]; growth substrate Propylamine
  Conversion Rate: 3.2 μmoles/hr/mg of protein
[6]
  Conversion Rates: 0.62 μmoles/hr/mg protein
[7]
  Conversion Rates: 0.72 μmoles/hr/mg protein
[8]
  Conversion Rates: 2.0 μmoles/hr/mg protein
[9]
  Conversion Rates: 0.67 μmoles/hr/mg protein
[10]
  Conversion Rates: 2.0 μmoles/hr/mg protein
[11]
  Conversion Rates: 0.25 μmoles/hr/mg protein
[12]
  Conversion Rates: 1.0 μmoles/hr/mg protein
[13]
  Conversion Rates: 0.40 μmoles/hr/mg protein
[14]
  Conversion Rates: 0.50 μmoles/hr/mg protein
[15]
  Conversion Rates: 5.0 μmoles/hr/mg protein
[16]
  Conversion Rate: 4.5 μmoles/hr/mg Protein
[17]
  Conversion Rate to Ketone, 2 hrs.: 5 μmole/2 mg protein
[18]; growth substrate Ethanol
  Conversion Rate: 4.5 μmoles/hr/mg of protein
[18]; growth substrate Methanol
  Conversion Rate: 4.8 μmoles/hr/mg of protein
[18]; growth substrate Methylamine
  Conversion Rate: 4.0 μmoles/hr/mg of protein
[18]; growth substrate Methylformate
  Conversion Rate: 4.9 μmoles/hr/mg of protein
[18]; growth substrate Propylamine
  Conversion Rate: 4.0 μmoles/hr/mg of protein
[19]
  Conversion Rate: 4.8 μmoles/hr/mg Protein
[20]
  oxidation by the purified enzyme: catalyzed the oxidation
[21]
  Conversion Rate: 4.5 μmoles/hr/mg Protein
[22]; growth substrate Ethanol
  Conversion Rate: 5.0 μmoles/hr/mg of protein
[22]; growth substrate Methanol
  Conversion Rate: 5.9 μmoles/hr/mg of protein
[22]; growth substrate Methylamine
  Conversion Rate: 5.2 μmoles/hr/mg of protein
[22]; growth substrate Methylformate
  Conversion Rate: 5.6 μmoles/hr/mg of protein
[22]; growth substrate Propylamine
  Conversion Rate: 4.1 μmoles/hr/mg of protein
[23]
  Conversion Rate to Ketone, 2 hrs.: 3 μmole/2 mg protein
[24]
  Conversion Rate to Ketone, 2 hrs.: 1 μmole/2 mg protein
  Conversion Rate to Ketone, 20 hrs.: 8 μmole/2 mg protein
[25]
  Conversion Rate to Ketone, 2 hrs.: 1 μmole/2 mg protein
[26]
  Conversion Rate to Ketone, 2 hrs.: 3 μmole/2 mg protein
  Conversion Rate to Ketone, 20 hrs.: 15 μmole/2 mg protein
[27]
  Conversion Rate to Ketone, 2 hrs.: 3 μmole/2 mg protein
Pichia sp. NRRL-Y-11328; growth substrate Ethanol
  Conversion Rate: 4.5 μmoles/hr/mg of protein
Pichia sp. NRRL-Y-11328; growth substrate Methanol
  Conversion Rate: 5.2 μmoles/hr/mg of protein
Pichia sp. NRRL-Y-11328; growth substrate Methylamine
  Conversion Rate: 4.2 μmoles/hr/mg of protein
Pichia sp. NRRL-Y-11328; growth substrate Methylformate
  Conversion Rate: 4.9 μmoles/hr/mg of protein
Pichia sp. NRRL-Y-11328; growth substrate Propylamine
  Conversion Rate: 3.2 μmoles/hr/mg of protein
